In ChEMBL document CHEMBL1145312, “Structure-activity relationships of triazolopyridine oxazole p38 inhibitors: identification of candidates for clinical development” (Bioorg Med Chem Lett, 2006):
≈ marks a conversion by molar mass, not a printed value.

Assays:
[1] = biological target: Mitogen-activated protein kinase 14 (Homo sapiens, UniProt Q16539); assay: Inhibition of p38alpha
Homo sapiens = species: Homo sapiens; assay: Inhibition of LPS-induced TNFalpha production in human whole blood; format: functional, organism-based
Monocyte = assay: Inhibition of LPS-induced TNFalpha production in human monocytes; format: functional, cell-based
[2] = biological target: Tyrosine-protein kinase CSK (Homo sapiens, UniProt P41240); assay: Inhibition of CSK
[3] = biological target: Dual specificity mitogen-activated protein kinase kinase 1 (Homo sapiens, UniProt Q02750); assay: Inhibition of MKK1
[4] = biological target: c-Jun N-terminal kinase, JNK (Homo sapiens, UniProt P45983+P53779+P45984); assay: Inhibition of JNK; format: protein assay
[5] = biological target: Dual specificity tyrosine-phosphorylation-regulated kinase 1A (Homo sapiens, UniProt Q13627); assay: Inhibition of DYRK1a
[6] = biological target: AMP-activated protein kinase, AMPK; assay: Inhibition of AMPK; format: protein-complex assay
[7] = biological target: Cyclin-dependent kinase 2 (Homo sapiens, UniProt P24941); assay: Inhibition of CDK2
[8] = biological target: T1, MAP kinase-activated protein kinase 5 (Homo sapiens, UniProt Q8IW41); assay: Inhibition of PRAK
T1 sequence (Q8IW41 whole entry): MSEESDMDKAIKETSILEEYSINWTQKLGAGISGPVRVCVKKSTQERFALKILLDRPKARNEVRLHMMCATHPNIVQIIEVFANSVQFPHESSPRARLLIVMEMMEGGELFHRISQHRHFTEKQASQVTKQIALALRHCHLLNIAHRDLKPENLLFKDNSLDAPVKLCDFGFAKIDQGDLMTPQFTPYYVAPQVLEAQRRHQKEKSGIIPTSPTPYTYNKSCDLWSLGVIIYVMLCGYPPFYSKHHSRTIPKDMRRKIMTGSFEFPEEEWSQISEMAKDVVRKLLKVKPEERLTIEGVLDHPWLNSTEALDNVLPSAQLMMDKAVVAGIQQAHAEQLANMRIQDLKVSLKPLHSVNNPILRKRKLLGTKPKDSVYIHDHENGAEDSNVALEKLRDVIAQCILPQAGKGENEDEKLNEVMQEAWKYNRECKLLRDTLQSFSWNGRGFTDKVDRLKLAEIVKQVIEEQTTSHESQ

[9] = biological target: T2, 3-phosphoinositide-dependent protein kinase 1 (Homo sapiens, UniProt O15530); assay: Inhibition of PDK1
T2 sequence (O15530 whole entry): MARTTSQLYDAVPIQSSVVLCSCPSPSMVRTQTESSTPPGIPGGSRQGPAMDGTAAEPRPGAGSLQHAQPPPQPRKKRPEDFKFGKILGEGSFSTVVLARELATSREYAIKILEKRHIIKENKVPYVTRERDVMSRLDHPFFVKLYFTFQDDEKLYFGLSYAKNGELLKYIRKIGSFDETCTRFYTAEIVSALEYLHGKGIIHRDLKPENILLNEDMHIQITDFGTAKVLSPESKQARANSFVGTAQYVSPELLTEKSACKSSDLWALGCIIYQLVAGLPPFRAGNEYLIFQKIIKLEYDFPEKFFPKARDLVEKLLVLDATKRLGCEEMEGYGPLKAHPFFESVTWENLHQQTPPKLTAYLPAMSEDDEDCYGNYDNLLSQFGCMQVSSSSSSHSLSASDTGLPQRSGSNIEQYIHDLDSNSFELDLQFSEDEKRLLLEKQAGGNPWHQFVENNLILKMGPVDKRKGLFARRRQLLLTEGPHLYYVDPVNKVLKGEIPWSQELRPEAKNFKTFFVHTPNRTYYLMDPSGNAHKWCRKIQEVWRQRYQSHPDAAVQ

[10] = biological target: Rho-associated protein kinase 2 (Homo sapiens, UniProt O75116); assay: Inhibition of ROCK2
[11] = biological target: MAP kinase-activated protein kinase 2 (Homo sapiens, UniProt P49137); assay: Inhibition of MAPKAP-K2
[12] = biological target: Ribosomal protein S6 kinase (P70S6K) (Homo sapiens, UniProt P23443+Q9UBS0); assay: Inhibition of P70S6K; format: protein-complex assay
[13] = biological target: T3, Serine/threonine-protein kinase Sgk1 (Homo sapiens, UniProt O00141); assay: Inhibition of SGK
T3 sequence (O00141 whole entry): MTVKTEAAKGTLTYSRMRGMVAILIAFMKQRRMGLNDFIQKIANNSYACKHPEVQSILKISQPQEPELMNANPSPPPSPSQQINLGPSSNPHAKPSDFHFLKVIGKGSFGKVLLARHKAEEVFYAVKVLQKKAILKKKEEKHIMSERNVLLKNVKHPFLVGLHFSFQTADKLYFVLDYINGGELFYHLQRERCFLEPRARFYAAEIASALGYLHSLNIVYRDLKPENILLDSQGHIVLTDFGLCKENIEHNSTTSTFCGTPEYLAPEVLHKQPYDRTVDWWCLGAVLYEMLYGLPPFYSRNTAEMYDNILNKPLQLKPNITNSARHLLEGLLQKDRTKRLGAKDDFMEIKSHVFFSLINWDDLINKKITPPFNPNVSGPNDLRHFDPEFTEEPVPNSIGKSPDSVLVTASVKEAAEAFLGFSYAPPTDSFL

[14] = biological target: Ribosomal protein S6 kinase alpha-5 (Homo sapiens, UniProt O75582); assay: Inhibition of MSK1
[15] = biological target: Ribosomal protein S6 kinase alpha-1 (Homo sapiens, UniProt Q15418); assay: Inhibition of MAPKAP-K1a
[16] = Inhibition of PKC
[17] = Inhibition of PI3K
Casein kinase II = Casein kinase II (Homo sapiens, UniProt P19784+P67870+P68400); assay: Inhibition of CK2; format: protein-complex assay
[18] = biological target: Protein kinase C alpha type (Homo sapiens, UniProt P17252); assay: Inhibition of PKCalpha
[19] = biological target: RAC-alpha serine/threonine-protein kinase (Homo sapiens, UniProt P31749); assay: Inhibition of PKBalpha
[20] = biological target: Mitogen-activated protein kinase 1 (Homo sapiens, UniProt P28482); assay: Inhibition of ERK2
[21] = Inhibition of phosphorylase kinase
[22] = biological target: T4, Serine/threonine-protein kinase Chk1 (Homo sapiens, UniProt O14757); assay: Inhibition of CHK1
T4 sequence (O14757 whole entry): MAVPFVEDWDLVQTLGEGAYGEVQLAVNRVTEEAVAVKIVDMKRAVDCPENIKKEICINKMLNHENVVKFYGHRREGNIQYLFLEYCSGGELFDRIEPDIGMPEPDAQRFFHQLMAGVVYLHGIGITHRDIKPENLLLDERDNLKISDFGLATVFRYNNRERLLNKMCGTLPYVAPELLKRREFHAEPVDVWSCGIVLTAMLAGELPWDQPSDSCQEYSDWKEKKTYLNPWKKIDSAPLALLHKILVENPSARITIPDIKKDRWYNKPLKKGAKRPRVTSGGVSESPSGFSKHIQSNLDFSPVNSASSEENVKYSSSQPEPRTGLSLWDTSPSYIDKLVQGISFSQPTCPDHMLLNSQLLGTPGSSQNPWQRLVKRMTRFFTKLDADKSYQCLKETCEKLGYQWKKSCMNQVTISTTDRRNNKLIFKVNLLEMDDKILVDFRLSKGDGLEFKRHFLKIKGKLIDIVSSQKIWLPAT

[23] = biological target: Glycogen synthase kinase-3 beta (Homo sapiens, UniProt P49841); assay: Inhibition of GSK3-beta
[24] = biological target: Tyrosine-protein kinase Lck (Homo sapiens, UniProt P06239); assay: Inhibition of Lck
[25] = biological target: T5, Mitogen-activated protein kinase 12 (Homo sapiens, UniProt P53778); assay: Inhibition of p38-gamma
T5 sequence (P53778 whole entry): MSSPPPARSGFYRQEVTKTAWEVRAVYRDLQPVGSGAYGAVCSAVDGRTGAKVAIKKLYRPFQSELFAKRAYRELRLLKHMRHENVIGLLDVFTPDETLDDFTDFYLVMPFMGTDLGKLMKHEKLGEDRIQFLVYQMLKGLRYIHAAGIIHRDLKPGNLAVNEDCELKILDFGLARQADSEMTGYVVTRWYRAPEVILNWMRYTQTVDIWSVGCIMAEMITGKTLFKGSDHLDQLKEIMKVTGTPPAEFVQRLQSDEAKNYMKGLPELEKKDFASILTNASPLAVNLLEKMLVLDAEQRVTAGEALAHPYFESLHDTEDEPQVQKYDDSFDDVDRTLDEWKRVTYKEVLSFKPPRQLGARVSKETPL

[26] = Solubility in PBS buffer at ph 6.5; format: physicochemical
hERG (KCNH2) [27] = biological target: T6, hERG (KCNH2) (Homo sapiens, UniProt Q12809); assay: Inhibition of hERG channel current in HEK293 cells at 3 uM; format: toxicity, cell-based; conditions: HEK293 cells that express hERG
Rattus norvegicus [28] = assay: Inhibition of LPS-induced TNFalpha release in rat at 3 mg/kg; format: functional
[29] = Permeability from apical to basolateral side of Caco-2 cell membrane; format: ADME, cell-based; conditions: human
[30] = Bioavailability in monkey; format: ADME, organism-based, Macaca mulatta; conditions: rhesus monkey, in vivo
[31] = Bioavailability in rat; format: ADME, organism-based; conditions: in vivo
hERG (KCNH2) [32] = biological target: T6, hERG (KCNH2); assay: Inhibition of hERG channel current in HEK293 cells at 1 uM; format: toxicity, cell-based; conditions: HEK293 cells that express hERG
[33] = Volume of distribution in monkey; format: ADME, organism-based, Macaca mulatta; conditions: rhesus monkey, in vivo; read-out: Vdss
[34] = Volume of distribution in rat; format: ADME, organism-based; conditions: in vivo, read-out: Vdss
Rattus norvegicus [35] = species: Rattus norvegicus; assay: Inhibition of LPS-induced TNFalpha release in rat; format: functional
[36] = Permeability from basolateral to apical side of Caco-2 cell membrane; format: ADME, cell-based; conditions: human

Chain of Mitogen-activated protein kinase 14 (Q16539 whole entry): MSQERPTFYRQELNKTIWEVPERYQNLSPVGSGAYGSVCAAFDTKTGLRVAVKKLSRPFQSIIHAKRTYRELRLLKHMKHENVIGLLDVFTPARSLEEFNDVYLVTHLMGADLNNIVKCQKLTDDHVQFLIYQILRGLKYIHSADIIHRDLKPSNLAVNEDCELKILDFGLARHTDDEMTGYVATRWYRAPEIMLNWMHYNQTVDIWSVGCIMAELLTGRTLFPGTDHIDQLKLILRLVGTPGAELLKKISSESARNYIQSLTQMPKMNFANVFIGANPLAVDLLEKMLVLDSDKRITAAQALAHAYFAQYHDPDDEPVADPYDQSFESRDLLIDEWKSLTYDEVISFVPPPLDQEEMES
Chain of Mitogen-activated protein kinase 1 (P28482 whole entry): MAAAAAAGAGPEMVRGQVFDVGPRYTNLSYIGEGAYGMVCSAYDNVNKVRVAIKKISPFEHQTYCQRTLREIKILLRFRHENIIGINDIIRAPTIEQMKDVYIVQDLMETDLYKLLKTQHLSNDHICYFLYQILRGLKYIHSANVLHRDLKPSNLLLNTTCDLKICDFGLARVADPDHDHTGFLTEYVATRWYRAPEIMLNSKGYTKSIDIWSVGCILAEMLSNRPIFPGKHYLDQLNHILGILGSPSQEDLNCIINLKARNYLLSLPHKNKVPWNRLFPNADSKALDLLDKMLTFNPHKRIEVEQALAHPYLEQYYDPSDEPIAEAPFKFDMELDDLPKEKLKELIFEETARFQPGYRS
T6 sequence (Q12809 whole entry): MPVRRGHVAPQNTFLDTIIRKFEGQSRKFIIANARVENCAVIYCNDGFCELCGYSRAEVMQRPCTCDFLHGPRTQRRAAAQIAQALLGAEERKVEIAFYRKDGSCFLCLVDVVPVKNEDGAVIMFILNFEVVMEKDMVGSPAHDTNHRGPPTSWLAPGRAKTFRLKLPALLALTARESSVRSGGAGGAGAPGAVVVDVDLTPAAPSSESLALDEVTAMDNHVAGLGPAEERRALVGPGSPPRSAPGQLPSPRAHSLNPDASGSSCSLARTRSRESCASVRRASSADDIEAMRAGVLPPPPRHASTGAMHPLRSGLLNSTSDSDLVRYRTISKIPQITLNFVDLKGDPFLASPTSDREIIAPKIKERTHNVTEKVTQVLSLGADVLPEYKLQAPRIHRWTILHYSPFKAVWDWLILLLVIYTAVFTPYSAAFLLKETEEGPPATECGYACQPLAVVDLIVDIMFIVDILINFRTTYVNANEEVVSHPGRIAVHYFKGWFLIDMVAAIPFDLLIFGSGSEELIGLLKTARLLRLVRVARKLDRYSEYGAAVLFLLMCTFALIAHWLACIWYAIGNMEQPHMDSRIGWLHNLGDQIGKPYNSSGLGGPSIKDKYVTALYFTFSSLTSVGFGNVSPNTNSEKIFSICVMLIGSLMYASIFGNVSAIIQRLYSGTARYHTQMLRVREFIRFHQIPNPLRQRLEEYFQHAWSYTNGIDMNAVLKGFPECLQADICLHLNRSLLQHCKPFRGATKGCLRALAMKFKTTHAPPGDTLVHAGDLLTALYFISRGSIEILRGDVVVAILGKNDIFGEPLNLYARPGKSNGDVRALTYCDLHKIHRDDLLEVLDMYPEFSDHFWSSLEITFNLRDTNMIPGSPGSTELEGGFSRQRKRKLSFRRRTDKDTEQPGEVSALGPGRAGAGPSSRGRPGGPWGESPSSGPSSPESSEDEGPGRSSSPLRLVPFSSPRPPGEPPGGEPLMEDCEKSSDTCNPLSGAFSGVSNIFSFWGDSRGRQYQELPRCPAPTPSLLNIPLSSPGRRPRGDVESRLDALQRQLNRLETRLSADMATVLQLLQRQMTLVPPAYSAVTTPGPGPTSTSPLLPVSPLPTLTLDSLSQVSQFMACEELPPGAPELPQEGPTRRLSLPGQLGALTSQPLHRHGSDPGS
Chain of Casein kinase II (P67870 whole entry): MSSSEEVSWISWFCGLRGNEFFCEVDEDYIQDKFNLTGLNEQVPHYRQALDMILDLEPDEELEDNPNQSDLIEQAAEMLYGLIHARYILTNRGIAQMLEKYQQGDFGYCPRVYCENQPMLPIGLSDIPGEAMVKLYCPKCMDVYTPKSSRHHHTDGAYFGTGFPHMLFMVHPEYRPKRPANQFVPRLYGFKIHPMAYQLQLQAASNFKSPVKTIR
Chain of Casein kinase II (P68400 whole entry): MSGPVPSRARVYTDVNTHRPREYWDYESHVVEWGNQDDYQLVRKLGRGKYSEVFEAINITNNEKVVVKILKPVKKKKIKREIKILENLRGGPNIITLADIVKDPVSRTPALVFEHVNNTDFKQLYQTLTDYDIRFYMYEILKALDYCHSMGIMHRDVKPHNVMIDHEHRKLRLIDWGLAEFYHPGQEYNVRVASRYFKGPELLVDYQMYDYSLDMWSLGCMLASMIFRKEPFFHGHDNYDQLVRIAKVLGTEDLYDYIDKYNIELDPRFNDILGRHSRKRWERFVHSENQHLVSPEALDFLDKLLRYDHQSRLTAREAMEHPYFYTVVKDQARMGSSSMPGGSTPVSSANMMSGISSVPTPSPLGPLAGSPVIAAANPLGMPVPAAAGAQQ
Chain of Casein kinase II (P19784 whole entry): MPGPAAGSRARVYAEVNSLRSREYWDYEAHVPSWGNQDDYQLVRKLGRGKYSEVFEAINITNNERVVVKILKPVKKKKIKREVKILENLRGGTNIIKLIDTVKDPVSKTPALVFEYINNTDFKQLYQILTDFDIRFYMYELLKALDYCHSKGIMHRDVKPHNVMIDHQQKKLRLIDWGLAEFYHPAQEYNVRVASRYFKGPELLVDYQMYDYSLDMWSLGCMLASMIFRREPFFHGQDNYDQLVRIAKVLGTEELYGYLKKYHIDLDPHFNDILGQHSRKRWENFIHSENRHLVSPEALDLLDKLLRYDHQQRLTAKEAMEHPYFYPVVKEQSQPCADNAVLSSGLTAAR
Chain of Rho-associated protein kinase 2 (O75116 whole entry): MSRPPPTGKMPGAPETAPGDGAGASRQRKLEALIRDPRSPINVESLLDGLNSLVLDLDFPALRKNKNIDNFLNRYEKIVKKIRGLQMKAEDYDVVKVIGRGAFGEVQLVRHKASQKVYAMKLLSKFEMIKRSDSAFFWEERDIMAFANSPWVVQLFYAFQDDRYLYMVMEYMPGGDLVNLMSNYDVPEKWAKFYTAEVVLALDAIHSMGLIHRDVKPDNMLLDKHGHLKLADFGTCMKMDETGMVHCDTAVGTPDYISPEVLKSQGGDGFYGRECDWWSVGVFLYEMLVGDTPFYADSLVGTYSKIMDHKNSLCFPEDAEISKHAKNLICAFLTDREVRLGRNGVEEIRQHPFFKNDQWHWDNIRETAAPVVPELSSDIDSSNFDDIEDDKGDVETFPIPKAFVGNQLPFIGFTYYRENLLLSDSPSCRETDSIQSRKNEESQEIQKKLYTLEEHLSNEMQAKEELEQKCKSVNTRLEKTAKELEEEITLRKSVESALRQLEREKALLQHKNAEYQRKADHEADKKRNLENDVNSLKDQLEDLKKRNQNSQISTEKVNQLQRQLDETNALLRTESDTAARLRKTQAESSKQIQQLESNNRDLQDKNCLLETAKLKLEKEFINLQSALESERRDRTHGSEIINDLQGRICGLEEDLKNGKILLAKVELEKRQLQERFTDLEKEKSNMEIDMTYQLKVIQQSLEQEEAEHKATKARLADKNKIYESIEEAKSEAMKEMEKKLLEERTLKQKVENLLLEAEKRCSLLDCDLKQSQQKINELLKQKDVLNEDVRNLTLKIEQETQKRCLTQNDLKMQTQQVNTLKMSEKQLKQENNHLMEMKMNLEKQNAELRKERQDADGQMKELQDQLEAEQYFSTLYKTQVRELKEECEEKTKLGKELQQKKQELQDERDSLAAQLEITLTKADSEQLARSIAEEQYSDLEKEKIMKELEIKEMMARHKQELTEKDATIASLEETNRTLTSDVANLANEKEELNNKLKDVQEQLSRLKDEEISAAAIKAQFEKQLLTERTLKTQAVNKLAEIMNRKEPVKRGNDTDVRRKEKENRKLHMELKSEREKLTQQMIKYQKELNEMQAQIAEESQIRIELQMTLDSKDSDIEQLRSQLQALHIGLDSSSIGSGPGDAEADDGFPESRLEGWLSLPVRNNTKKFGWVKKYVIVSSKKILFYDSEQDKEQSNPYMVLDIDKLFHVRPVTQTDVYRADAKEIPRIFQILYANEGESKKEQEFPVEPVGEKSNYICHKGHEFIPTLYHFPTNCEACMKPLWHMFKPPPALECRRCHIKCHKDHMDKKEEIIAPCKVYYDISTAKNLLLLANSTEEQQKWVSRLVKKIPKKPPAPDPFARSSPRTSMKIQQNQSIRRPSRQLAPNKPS

IC50 [1] [µM]	IC50 (Homo sapiens) [µM]	IC50 (Monocyte) [µM]	IC50 [2] [µM]	IC50 [3] [µM]	IC50 [4] [µM]	IC50 [5] [µM]	IC50 [6] [µM]	IC50 [7] [µM]	IC50 [8] [µM]	IC50 [10] [µM]	IC50 [11] [µM]	IC50 [12] [µM]	IC50 [13] [µM]	IC50 [14] [µM]	IC50 [15] [µM]	IC50 [16] [µM]	IC50 [17] [µM]	IC50 (Casein kinase II) [µM]	IC50 [18] [µM]	Structure (SMILES)	further results
0.0032	0.263	0.0197	> 10	> 10	> 10	> 10	> 10	> 10	> 10	> 10	> 10	> 10	> 10	> 10	> 10	> 10	> 10	> 10	> 10	CC(C)c1nnc2ccc(-c3ocnc3-c3cc(F)c(F)cc3F)cn12	IC50 [9]: > 10 µM; IC50 [19]: > 10 µM; IC50 [20]: > 10 µM; IC50 [21]: > 10 µM; IC50 [22]: > 10 µM; IC50 [23]: > 10 µM
0.0025	0.38	0.0245	> 10	> 10	> 10	> 10	> 10	> 10	> 10	> 10	> 10	> 10	> 10	> 10	> 10	> 10	> 10	> 10	> 10	CC(C)c1nnc2ccc(-c3ocnc3-c3ccc(F)cc3Cl)cn12	IC50 [24]: > 10 µM; IC50 [25]: > 10 µM; solubility [26]: 81 µg/mL (≈ 227 µM); inhibition at 3 µM (hERG (KCNH2) [27]): 0%; inhibition in vivo at 3 mg/kg (Rattus norvegicus [28]): 94%; IC50 [19]: > 10 µM; IC50 [20]: > 10 µM; IC50 [21]: > 10 µM; IC50 [22]: > 10 µM; IC50 [23]: > 10 µM
0.0058	0.259	0.025	–	–	–	–	–	–	–	–	–	–	–	–	–	–	–	–	–	CC(C)c1nnc2ccc(-c3ocnc3-c3cc(F)ccc3F)cn12	Papp A→B [29]: 43 ×10⁻⁶ cm/s; bioavailability [30]: 40%; bioavailability [31]: 58%; solubility [26]: 8.1 µg/mL (≈ 23.8 µM); inhibition at 1 µM (hERG (KCNH2) [32]): 0%; Vd [33]: 1.3 L/kg; Vd [34]: 0.8 L/kg; ED50 (Rattus norvegicus [35]): 0.3 mg/kg; Papp B→A [36]: 29 ×10⁻⁶ cm/s
